Three molecules from patent US8034561B2, “HIN-1, a tumor suppressor gene” (Dana-Farber Cancer Institute, Inc., priority 2001, dated 2011) can be followed below.

Experiment [1] concerns breast cancer cell lines with no detectable expression of hHIN-1. The experiment in a line: Effect of DNA methyltransferase inhibitor on hHIN-1 mRNA levels (RT-PCR). Format: cell-based, human. As to conditions: six breast cancer cell lines, 25 μM 5aza-C for three to ten days. The text has this:
Cell lines and tissue. BT-20, BT-474, BT-549, Hs578T, MCF-7, MDA-MB-231, MDA-MB-468, MDA-MB-435S, SK-BR-3, T47D, UACC-812, UACC-893, and ZR-75-1 breast cancer cell lines were obtained from the American Type Culture Collection (ATCC; Manassas, Va.). SUM-44, SUM-52, SUM-102, SUM149, SUM-159, SUM-185, SUM-190, SUM-225, SUM-229, and SUM-1315 cell lines were a generous gift of Dr. Steve Ethier (University of Michigan Medical Center). The HCC1937 BRCA1 minus cell line was obtained from Dr. Gail Tomlinson (University of Texas Southwestern Medical Center). The 21MT1, 21MT2, 21NT, and 21PT cell lines were obtained from Dr. Arthur Pardee (Dana-Farber Cancer Institute). Cells were grown in media recommended by the ATCC or by the establishing investigators. However, 48 hours prior to RNA extraction, all cell lines were switched to DMEM/F12 medium supplemented with 5% FBS in order to minimize gene expression differences due to culture conditions. […]
(§1) To test for the consequence of promoter methylation on hHIN-1 expression, the effect of a DNA methyltransferase inhibitor (5-aza-2′-deoxycytidine; “5aza-C”) on hHIN-1 mRNA levels was analyzed. […] The expression of hHIN-1 mRNA was determined by RT-PCR analysis, while the extent of promoter methylation was evaluated by sequence analysis of bisulfite treated genomic DNA.

The subject of another experiment is hHIN-1 promoter region. The experiment in a line: Extent of hHIN-1 promoter methylation by sequence analysis of bisulfite treated genomic DNA. The experiment is classed as cell-based, human. As to conditions: ZR-75-1 cells treated with 25 μM 5aza-C vs not treated, bisulfite sequencing.
From the text: hHIN-1 methylation, loss of heterozygocity and mutation analysis. Searching the draft of the human genome sequence with the hHIN-1 cDNA sequence identified a genomic clone (CTB-36B8) containing the entire hHIN-1 gene, the proximal promoter region of which contained an apparent CpG island. To determine the location of methylated cytosines, genomic DNA was extracted from the cells, bisulfite treated and purified as previously described [Herman et al. (1998) Proc. Natl. Acad. Sci. USA 95:6870-6875]. PCR amplification was performed using the following primers designed to amplify the coding strand (nucleotides −345 to +72) of bisulfite treated DNA: forward primer-5′-[…]-3′ (SEQ ID NO:9) and reverse primer-5′-[…]-3′ (SEQ ID NO:10). […] PCR amplifications were performed as described above; PCR fragments were analyzed on 3% agarose gels.
as §1

Experiment [2] relates to primary human bronchial epithelial cells. Kind of experiment: Retinoic acid-induced mucinous differentiation, RT-PCR of hHIN-1, MUC2 and Tgase I mRNA. Format: cell-based. The settings on record: 1 mM all-trans retinoic acid, 1 to 9 days. How it is done:
Primary cultures of human bronchial epithelial cells were purchased from Clonetics (Walkersville, Md.) and were cultured in the presence or absence of 1 mM all-trans retinoic acid essentially as previously described [Koo et al. (1999) Am. J. Respir. Cell Mol. Biol. 20:43-52].
To test this hypothesis, the expression of hHIN-1 mRNA by RT-PCR during retinoic acid-induced mucinous differentiation of primary human bronchial epithelial cells was analyzed (FIG. 13). Primary human bronchial epithelial cells underwent squamous epithelial differentiation and expressed squamous cell markers such as transglutaminase I (Tgase I) in the absence of all-trans retinoic acid (FIG. 13). […] J. Respir. Cell Mol. Biol. 20:43-52]. […] Such expression kinetics are consistent with a role for HIN-1 as an inducer of this process.

In the next experiment the test system is BT549 cells. Kind of experiment: Colony assay after transfection with pCEP4 expression constructs. Format: cell-based, human. As to conditions: stable transfectants selected with hygromycin for 2 weeks, crystal violet staining, compared to control pCEP4. The text has this: Generation of hHIN-1 mammalian expression constructs and recombinant adenoviruses. […] For the generation of a recombinant adenovirus the hHIN-1 cDNA was PCR amplified and subcloned into the Kpn I-Xho I site of the pAd-Track-CMV adenoviral vector followed by recombination and adenovirus generation using the Ad-Easy™(Quantum Biotechnologies, Montreal, Canada) system [He et al. (1998) Proc. Natl. Acad. Sci. USA 95:2509-2514].
Colony assays, cell cycle analysis and western blot analysis. For colony assay experiments, cells in 100 mm plates were transfected with a mix of 42 μl of FuGene6 (Roche) and 21 μg of the indicated plasmid. 24 hours after transfection, 84% of the cells were plated into 2 T25 tissue culture flasks in medium without a selection drug. Twenty-four hours later the medium was replaced with selection medium containing hygromycin. Colonies were allowed to grow for 2 weeks after which they were visualized by crystal violet staining.
In order to investigate the effect of constitutive hHIN-1 expression on mammary cell growth, a mammalian expression construct containing hHIN-1 polypeptide encoding cDNA (pCEP4-HIN-1) was transfected into various breast cancer cell lines. Stable transfectants were selected in the presence of hygromycin for 2 weeks.

Consider `Nc1ncn([C@H]2C[C@H](O)[C@@H](CO)O2)c(=O)n1` [5aza-C, 5-aza-2′-deoxycytidine], for which the “expression of hHIN-1 mRNA” value in experiment [1] is “re-expression of hHIN-1 mRNA in all six cell lines”. Also, the “extent of hHIN-1 promoter methylation” value in the experiment with hHIN-1 promoter region is recorded as “decrease in the extent of promoter methylation”.

Turning to `CC1=C(/C=C/C(C)=C/C=C/C(C)=C/C(=O)O)C(C)(C)CCC1` [retinoic acid, all-trans retinoic acid], the “expression of hHIN-1 mRNA” value in experiment [2] (RT-PCR, following retinoic acid treatment) was “correlated with the loss of a squamous marker (Tgase I) and preceded the induction of a marker for mucinous differentiation (MUC2)”. The “differentiation phenotype (MUC2 expression)” value in experiment [2] (air-interface culture) was “differentiated into mucinous cells”.

B1: hHIN-1: hHIN-1 polypeptide (SEQ ID NO:1), 104 amino acids, expressed from the pCEP4-HIN-1 mammalian expression construct (protein, listed as Homo sapiens)
chain: MKLAALLGLCVALSCSSARAFLVGSAKPVAQPVAALESAAEAGAGTLANPLGTLNPLKLLLSSLGIPVNHLIEGSQKCVAELGPQAVGAVKALKALLGALTVFG
Consider B1, for which the “colony numbers / cell growth” value in the experiment with BT549 cells is given as “dramatic decrease in colony numbers”.
